Laboratory results from patent US20230302014A1, “USES OF GLUCOCORTICOID RECEPTOR (GR) ANTAGONIST AND ANDROGEN RECEPTOR (AR) DEGRADER COMBINATIONS” (ORIC Pharmaceuticals, Inc., priority 2020, published 2023).

Tests used:
Assay type in all cases: cell-based, Human
[1] = test system: AR target genes KLK3, KLK4, NKX3.1, FKBP5; assay: Target gene assay (RT-qPCR, R1881-induced AR target genes); conditions: 100 pM R1881; for AR target gene FKBP5 induced by R1881 / AR target gene KLK3 induced by R1881 / AR target gene KLK4 induced by R1881 / AR target gene NKX3.1 induced by R1881: 24 hours post treatment
Experimental: (§1) 10,000 LNCaP and CWR22PC cells per well were plated in triplicate in poly-lysine coated 96-well plates (ThermoFisher#152039) in 200 µL of RPMI-1640 media supplemented with 10% charcoal-stripped serum. 24 hours later, cells were treated with 100 pM of R1881 and 8-point dilution for enzalutamide, ARD1 or ARD2 with concentrations ranging from 1 µM to 0.46 nM. After incubation at 37° C. for 24 hours, media was removed, and cells were washed once with PBS. 55 µL per well of iScript RT-qPCR sample preparation reagent (Bio-Rad #1708898) was added and incubated for 2 minutes before lysate was collected for mRNA analysis. RT-qPCR was set up in triplicate using 3 µL of lysate plus 7 µL of pre-mixed SensiFAST™ SYBR No-ROX One-Step Kit reagents (BIOLINE, Cat# BIO-98005) per reaction. The RT-qPCR reactions were run on a Bio-Rad CFX384 Real-Time PCR System and data was plotted with GraphPad Prism 8 software.
as §1, with “15,000” for “10,000”, “24 hours later, cells were treated with 100 pM of R1881 and 8-point dilution for enzalutamide, ARD1 or ARD2 with concentrations ranging from 1 µM to 0.46 nM.” left out, “75” for “55”

PSA = PSA AlphaLISA assay of cell supernatant (PSA secretion); conditions: CWR22PC; CSS media; 21 days; 0.1 nM R1881 + 1 µM ARV-110, + 30 nM dexamethasone, + 0.5 µM compound 1
AR protein = assay: Western blot of AR protein after dose-dependent AR degrader treatment; conditions: LNCaP and CWR22PC cells, 3 days, increasing doses 3-1000 nM
Experimental: Cell pellets were washed with PBS and lysed in RIPA buffer (VWR#AAJ63306-AK) supplemented with proteasome inhibitor cocktails (VWR #AAJ65789-LQ). Resuspended cells were briefly sonicated for ~30 seconds using a probe sonicator and incubated on ice for 40 minutes, followed with centrifugation at 12,000 rpm for 15 minutes at 4° C. to collect the supernatant. Protein concentration was quantitated using Quick Start™ Bradford Protein Assay Kit (Bio-Rad #5000201).
Proteins were transferred to nitrocellulose membranes using iBlot 2 Dry Blotting System (ThermoFisher#IB210021) at 20 V for 10 minutes.

[2] = test system: AR and/or GR target genes KLK4, KLF9, FKBP5, PER1, SGK1; assay: Biomarker analysis by RT-qPCR, 48 hours; conditions: CWR22PC and 22Rv1 cells, 0.1 nM R1881, 1 µM degrader
Experimental: CWR22PC and 22RV1 cells were seeded at a density of 2 × 10^5 cells/well in 6-well plates in 2 mL of RPMI-1640 media supplemented with 10% charcoal-stripped serum (CSS). Cells were treated with 100 pM R1881, 30 nM dexamethasone, 0.5 µM compound 1, 1 µM of ARD1 or ARD2, or combinations thereof as indicated and maintained at 37° C. 48 hours later, media was removed, and cells were washed once with PBS and then harvested for mRNA analysis.
(§2) Adherent cells or cell pellets harvested for mRNA analysis were first washed once with PBS and then resuspended in 600 µL of RLT lysis buffer (Qiagen Inc.) supplemented with 1% of betamercaptoethanol. RNA was extracted by QIAcube using the RNeasy Mini QIAcube kit (Qiagen#74116) according to manufacturer’s instructions. The extracted RNA samples were then quantified using a Nanodrop 8000 Spectrophotometer. RT-qPCR reactions were set up in triplicate using 3 µL of 3 ng/ µL of RNA in 7 µL of pre-mixed SensiFAST™ SYBR No-ROX One-Step Kit reagents (BIOLINE# BIO-98005). The RT-qPCR reactions were run on a Bio-Rad CFX384 Real-Time PCR System and data was plotted with GraphPad Prism 8 software.
CWR22PC and 22Rv1 cells were seeded at a density of 2 × 10^5 cells/well in 6-well plates in 2 mL of RPMI-1640 media supplemented with 10% charcoal-stripped serum (CSS). […] 48 hours later, media was removed, and cells were washed once with PBS and then harvested for mRNA analysis.

AR mRNA = assay: RT-qPCR of AR mRNA after dose-dependent AR degrader treatment; conditions: LNCaP and CWR22PC cells, 3 days, increasing doses 3-1000 nM
Experimental: LNCaP and CWR22PC cells were plated in seven 15-cm dishes (Corning#353025) at a density of 5 million cells per dish in RPMI-1640 media supplemented with 10% charcoal-stripped serum (CSS; OmegaScientific#FB4). After 24 hours, the cells were treated with 0, 3, 10, 30, 100, 300 and 1000 nM of ARD1 or ARD2 and incubated at 37° C. for 3 days. The cells were then trypsinized (Corning#25-053-CI) and harvested for transcript (RT-qPCR) and protein (western blot) analysis.
as §2
LNCaP and CWR22PC cells were plated in seven 10-cm dishes (Corning#353003) at a density of 2 million cells per dish in RPMI-1640 media supplemented with 10% charcoal-stripped serum (CSS; OmegaScientific#FB4). […]

GR mRNA = assay: RT-qPCR of GR mRNA after time-dependent AR degrader treatment; conditions: 30 nM dexamethasone, up to 15 days
Experimental: 5 million of LNCaP and CWR22PC cells per dish were plated in five 15-cm dishes in 20 mL of RPMI-1640 media supplemented with 10% charcoal-stripped serum (CSS) and cultured at 37° C. for 24 hours. Cells were treated with 30 nM of dexamethasone and with 100 nM of ARD1 or ARD2 and maintained at 37° C. until harvest. On Day 0, 6, 10, 13, and 15, cells were trypsinized, cell pellets were washed with 1XPBS and then divided for mRNA and protein preparation.
as §2
2 million of LNCaP and CWR22PC cells per dish were plated in five 10-cm dishes in 10 mL of RPMI-1640 media supplemented with 10% charcoal-stripped serum (CSS) and cultured at 37° C. for 24 hours. […]

SMILES: N#Cc1ccc(O[C@H]2CC[C@H](NC(=O)c3ccc(N4CCC(CN5CCN(c6cc7c(cc6F)C(=O)N(C6CCC(=O)NC6=O)C7=O)CC5)CC4)nn3)CC2)cc1Cl (stereo partly drawn) [ARV-110, N-[trans-4-(3-chloro-4-cyanophenoxy)cyclohexyl]-6-[4-[[4-[2-(2,6-dioxo-3-piperidinyl)-6-fluoro-2,3-dihydro-1,3-dioxo-1H-isoindol-5-yl]-1-piperazinyl]methyl]-1-piperidinyl]-3-pyridazinecarboxamide]
- AR target gene FKBP5 induced by R1881 ([1]; CWR22PC cells): inhibit
- AR target gene KLK3 induced by R1881 ([1]; CWR22PC cells): inhibit
- AR target gene KLK4 induced by R1881 ([1]; CWR22PC cells): inhibit
- AR target gene NKX3.1 induced by R1881 ([1]; CWR22PC cells): inhibit
- expression of AR target genes including KLK3, KLK4, NKX3.1, and FKBP5 ([1]; LNCaP and CWR22PC cells, 24 hours, 1 µM to 0.46 nM, potency compared with enzalutamide): in a dose-dependent manner with greater potency than AR antagonist enzalutamide
- AR target gene FKBP5 induced by R1881 ([1]; LNCaP cells): inhibit
- AR target gene KLK3 induced by R1881 ([1]; LNCaP cells): inhibit
- AR target gene KLK4 induced by R1881 ([1]; LNCaP cells): inhibit
- AR target gene NKX3.1 induced by R1881 ([1]; LNCaP cells): inhibit
- R1881-induced PSA secretion (PSA): blunts
- AR protein levels (AR protein): degrades AR protein in a dose-dependent manner
- expression induction by R1881 of AR target FKBP5 [2]: completely inhibited
- expression induction by R1881 of AR target KLK4 [2]: completely inhibited
- AR transcript levels (AR mRNA): minimally impacting
- GR transcript levels (GR mRNA; CWR22PC cells (moderate GR pre-treatment), 100 nM degrader): minimal
- upregulation of GR mRNA levels (GR mRNA; GR-negative LNCaP cells, 100 nM ARV-110): ~ 7 fold
